{"source": "patent US20100048644A1", "about": "(BEIJING HUAANFO BIOMEDICAL RESEARCH CENTRE INC., priority 2006, published 2010)", "key": {"[1]": {"test_system": "spontaneous hypertensive rats (SHR) with prostate hyperplasia", "test": "Urodynamic parameters and urine volumes in spontaneous hypertensive rats (SHR) with prostate hyperplasia", "type": "in vivo, rat (SHR)", "settings": "Amlodipine 0.5 mg/kg (A3) oral once daily 14 days", "procedure": "(§1) In the treatment groups, the rats were orally administered by infusion at 1 ml/100 g body weight once daily for 14 consecutive days after 7-day injection with testosterone propionate. In the blank and model groups, the rats were orally perfused with isovolumetric physiological saline.\n(§2) The rats were anaesthetized by a peritoneal injection of 20% ethyl carbamate at a dose of 1000 mg/kg. The rat bladder was exposed by cutting a longitudinal incision on the upper of pubic arch. Piercing the top of bladder made a little hole, where a catheter with cannulas was inserted. The outside cannula (Φ 1.2 mm) with a pressreceptor was linked to PC-Lab multi-lead physiological recording system. The inside cannula (Φ 0.61 mm) was connected to an injection pump with constant infusion speed (2 ml/h). After last administration, the urodynamic parameters, single urine volume, and residual urine volume in rats were respectively collected.\n(§3) Data were presented as mean±SD. One way-ANOVA was employed for group comparison."}, "rats with BPH": {"test_system": "rats with BPH", "test": "Urodynamic parameters and urine volumes in castrated, testosterone propionate-treated SD rats with BPH", "type": "in vivo, rat (male SD)", "procedure": "Afterwards, the bilateral testicles of the rats were resected under an aseptic condition. Then the rats received an intramuscular injection of penicillin at 20000 U/kg/d for 3 days, and 1 week later a subcutaneous injection of testosterone propionate (dissolved in olive oil) at 0.5 mg/pec, once daily for 21 consecutive days.\nas §1, §2, §3"}, "[2]": {"test_system": "patients with low urinary tract syndrome (LUTS) and mild to moderate hypertension", "test": "Clinical study, Amlodipine 5 mg vs Terazosin 2 mg for 4 weeks: IPSS, urinary flow rate, blood pressure", "type": "in vivo, human", "parameters": "key to BOO (obstructive symptoms score) / OAB (irritative symptoms score): IPSS sub-scores in points (symptom items of IPSS)", "settings": "for Percentage of improvement at Week 4: BOO / Percentage of improvement at Week 4: DBP / Percentage of improvement at Week 4: IPSS / Percentage of improvement at Week 4: OAB / Percentage of improvement at Week 4: Qave / Percentage of improvement at Week 4: Qmax / Percentage of improvement at Week 4: SBP: Week 4 vs Week 0", "source_text": "1) Male, 50-75 years old. […] 3) International Prostate Symptom Score (IPSS)≧8 points\nStorage, reservation and delivery of drugs were in accordance with Standard Operation Procedure (SOP).\nObstructive symptoms score includes hesitancy of micturition, reduced or interrupted urinary stream and sensation of incomplete bladder emptying, which mainly reflect BOO. Irritative symptoms score refers to urinary urgency and frequency, and an increase in night micturition, reflecting OAB symptoms. In this study, a total score of IPSS is considered as primary index. Sub-scores on BOO and OAB were also considered.\nAll data, doubly entered using Epi-info 3.0 and presented as mean±standard deviation (SD), were analyzed using SAS 8.0. A paired t-test was employed to compare pre- and post-treatment scores, and a multiple regression analysis was further performed to adjust for important covariates. Difference was considered significant at P<0.05."}, "[3]": {"settings": "Amlodipine 0.25 mg/kg (A1) oral once daily 14 days"}, "[4]": {"settings": "Amlodipine 0.5 mg/kg (A2) oral once daily 14 days"}, "[5]": {"settings": "Week 0 (before treatment), groups Amlodipine 5 mg (N=90), Terazosin 2 mg (N=62)"}, "[6]": {"settings": "Week 4, Amlodipine 5 mg or Terazosin 2 mg oral for 4 consecutive weeks"}, "[7]": {"settings": "Amlodipine 5 mg or Terazosin 2 mg oral for 4 weeks"}, "[8]": {"settings": "multiple regression adjusted for age and BMI, Amlodipine 5 mg vs Terazosin 2 mg, 4 weeks"}, "[9]": {"settings": "multiple regression, crude, Amlodipine 5 mg vs Terazosin 2 mg, 4 weeks"}}, "note": "Where “and” joins values, the source holds several entries; their conditions need not be identical. Identical values can stand only once.", "data": [{"smiles": "CCOC(=O)C1=C(COCCN)NC(C)=C(C(=O)OC)C1c1ccccc1Cl", "note": "(stereo not drawn) [Amlodipine]", "values": [{"measurement": "Interval of micturition", "setting": "[1]", "value": "786.0 ± 237.5", "unit": "s"}, {"measurement": "Peak value of micturition pressure", "setting": "[1]", "value": "31.8 ± 7.3", "unit": "mmHg"}, {"measurement": "Point pressure of micturition", "setting": "[1]", "value": "31.4 ± 3.6", "unit": "mmHg"}, {"measurement": "Qave. (average urinary flow rate)", "setting": "[1]", "value": "4.4 ± 1.6", "unit": "mL/s"}, {"measurement": "Time of micturition", "setting": "[1]", "value": "8.0 ± 1.1", "unit": "s"}, {"measurement": "Interval of micturition", "setting": "rats with BPH; [3]", "value": "734.8 ± 210.5", "unit": "s"}, {"measurement": "Peak value of micturition pressure", "setting": "rats with BPH; [3]", "value": "37.5 ± 7.0", "unit": "mmHg"}, {"measurement": "Point pressure of micturition", "setting": "rats with BPH; [3]", "value": "33.4 ± 3.3", "unit": "mmHg"}, {"measurement": "Qave. (average urinary flow rate)", "setting": "rats with BPH; [3]", "value": "3.7 ± 1.2", "unit": "mL/s"}, {"measurement": "Time of micturition", "setting": "rats with BPH; [3]", "value": "8.9 ± 1.6", "unit": "s"}, {"measurement": "Interval of micturition", "setting": "rats with BPH; [4]", "value": "762.3 ± 274.8", "unit": "s"}, {"measurement": "Peak value of micturition pressure", "setting": "rats with BPH; [4]", "value": "30.5 ± 5.5", "unit": "mmHg"}, {"measurement": "Point pressure of micturition", "setting": "rats with BPH; [4]", "value": "30.6 ± 3.9", "unit": "mmHg"}, {"measurement": "Qave. (average urinary flow rate)", "setting": "rats with BPH; [4]", "value": "4.0 ± 1.9", "unit": "mL/s"}, {"measurement": "Time of micturition", "setting": "rats with BPH; [4]", "value": "8.4 ± 1.8", "unit": "s"}, {"measurement": "BOO (obstructive symptoms score)", "setting": "[2]; [5]", "value": "9.1 ± 4.2"}, {"measurement": "DBP", "setting": "[2]; [5]", "value": "88.6 ± 8.9", "unit": "mmHg"}, {"measurement": "OAB (irritative symptoms score)", "setting": "[2]; [5]", "value": "7.3 ± 3.3"}, {"measurement": "Qave", "setting": "[2]; [5]", "value": "8.9 ± 4.1", "unit": "mL/s"}, {"measurement": "Qmax", "setting": "[2]; [5]", "value": "17.3 ± 6.7", "unit": "mL/s"}, {"measurement": "SBP", "setting": "[2]; [5]", "value": "155.4 ± 16.1", "unit": "mmHg"}, {"measurement": "BOO (obstructive symptoms score)", "setting": "[2]; [6]", "value": "5.8 ± 4.6"}, {"measurement": "DBP", "setting": "[2]; [6]", "value": "82.0 ± 8.9", "unit": "mmHg"}, {"measurement": "IPSS", "setting": "[2]; [6]", "value": "11.1 ± 6.7"}, {"measurement": "OAB (irritative symptoms score)", "setting": "[2]; [6]", "value": "5.5 ± 3.2"}, {"measurement": "Qave", "setting": "[2]; [6]", "value": "8.8 ± 3.8", "unit": "mL/s"}, {"measurement": "Qmax", "setting": "[2]; [6]", "value": "17.7 ± 6.9", "unit": "mL/s"}, {"measurement": "SBP", "setting": "[2]; [6]", "value": "140.9 ± 15.4", "unit": "mmHg"}, {"measurement": "Percentage of improvement at Week 4: BOO", "setting": "[2]; [7]", "value": "33.3 ± 53.2", "unit": "%"}, {"measurement": "Percentage of improvement at Week 4: DBP", "setting": "[2]; [7]", "value": "7.2 ± 7.1 % and 7.22 ± 7.09%"}, {"measurement": "Percentage of improvement at Week 4: IPSS", "setting": "[2]; [7]", "value": "30.2 ± 39.7 % and 30.17 ± 39.7%"}, {"measurement": "Percentage of improvement at Week 4: OAB", "setting": "[2]; [7]", "value": "17.3 ± 49.3", "unit": "%"}, {"measurement": "Percentage of improvement at Week 4: Qave", "setting": "[2]; [7]", "value": "5.0 ± 35.2% and 5.04 ± 35.25%"}, {"measurement": "Percentage of improvement at Week 4: Qmax", "setting": "[2]; [7]", "value": "7.1 ± 41.1% and 7.09 ± 41.10%"}, {"measurement": "Percentage of improvement at Week 4: SBP", "setting": "[2]; [7]", "value": "8.9 ± 9.6 % and 8.89 ± 9.61%"}, {"measurement": "Percentage of improvement, (2)-(1) Amlodipine minus Terazosin, β Adjust: BOO", "setting": "[2]; [8]", "value": 0.3}, {"measurement": "Percentage of improvement, (2)-(1) Amlodipine minus Terazosin, β Adjust: DBF", "setting": "[2]; [8]", "value": 5.1}, {"measurement": "Percentage of improvement, (2)-(1) Amlodipine minus Terazosin, β Adjust: IPSS", "setting": "[2]; [8]", "value": 1.4}, {"measurement": "Percentage of improvement, (2)-(1) Amlodipine minus Terazosin, β Adjust: OAB", "setting": "[2]; [8]", "value": 8.6}, {"measurement": "Percentage of improvement, (2)-(1) Amlodipine minus Terazosin, β Adjust: Qave", "setting": "[2]; [8]", "value": "−8.4"}, {"measurement": "Percentage of improvement, (2)-(1) Amlodipine minus Terazosin, β Adjust: Qmax", "setting": "[2]; [8]", "value": "−5.0"}, {"measurement": "Percentage of improvement, (2)-(1) Amlodipine minus Terazosin, β Adjust: SBP", "setting": "[2]; [8]", "value": 5.7}, {"measurement": "Percentage of improvement, (2)-(1) Amlodipine minus Terazosin, β Crude: BOO", "setting": "[2]; [9]", "value": 1.1}, {"measurement": "Percentage of improvement, (2)-(1) Amlodipine minus Terazosin, β Crude: DBF", "setting": "[2]; [9]", "value": 4.9}, {"measurement": "Percentage of improvement, (2)-(1) Amlodipine minus Terazosin, β Crude: IPSS", "setting": "[2]; [9]", "value": 2.0}, {"measurement": "Percentage of improvement, (2)-(1) Amlodipine minus Terazosin, β Crude: OAB", "setting": "[2]; [9]", "value": 9.6}, {"measurement": "Percentage of improvement, (2)-(1) Amlodipine minus Terazosin, β Crude: Qave", "setting": "[2]; [9]", "value": "−8.7"}, {"measurement": "Percentage of improvement, (2)-(1) Amlodipine minus Terazosin, β Crude: Qmax", "setting": "[2]; [9]", "value": "−5.7"}, {"measurement": "Percentage of improvement, (2)-(1) Amlodipine minus Terazosin, β Crude: SBP", "setting": "[2]; [9]", "value": 5.6}]}, {"smiles": "COc1cc2nc(N3CCN(C(=O)C4CCCO4)CC3)nc(N)c2cc1OC", "note": "(stereo not drawn) [Terazosin]", "values": [{"measurement": "indices improved between week 0 and week 4", "setting": "[2]; [7]", "value": "remarkable improvement in IPSS, BOO-related score, maximum urinary flow rate (Qmax) and Qave, and a decrease in systolic blood pressure"}, {"measurement": "indices without improvement between week 0 and week 4", "setting": "[2]; [7]", "value": "no improvement in OAB-related score and diastolic blood pressure"}, {"measurement": "BOO (obstructive symptoms score)", "setting": "[2]; [5]", "value": "6.6 ± 3.5"}, {"measurement": "DBP", "setting": "[2]; [5]", "value": "86.6 ± 9.0", "unit": "mmHg"}, {"measurement": "IPSS", "setting": "[2]; [5]", "value": "13.2 ± 4.4"}, {"measurement": "OAB (irritative symptoms score)", "setting": "[2]; [5]", "value": "6.6 ± 3.0"}, {"measurement": "Qave", "setting": "[2]; [5]", "value": "8.9 ± 3.9", "unit": "mL/s"}, {"measurement": "Qmax", "setting": "[2]; [5]", "value": "17.7 ± 7.0", "unit": "mL/s"}, {"measurement": "SBP", "setting": "[2]; [5]", "value": "152.8 ± 15.9", "unit": "mmHg"}, {"measurement": "BOO (obstructive symptoms score)", "setting": "[2]; [6]", "value": "4.2 ± 4.3"}, {"measurement": "DBP", "setting": "[2]; [6]", "value": "84.5 ± 11.4", "unit": "mmHg"}, {"measurement": "IPSS", "setting": "[2]; [6]", "value": "9.4 ± 5.9"}, {"measurement": "OAB (irritative symptoms score)", "setting": "[2]; [6]", "value": "5.3 ± 2.8"}, {"measurement": "Qave", "setting": "[2]; [6]", "value": "9.9 ± 4.2", "unit": "mL/s"}, {"measurement": "Qmax", "setting": "[2]; [6]", "value": "19.4 ± 7.4", "unit": "mL/s"}, {"measurement": "SBP", "setting": "[2]; [6]", "value": "147.0 ± 17.8", "unit": "mmHg"}, {"measurement": "Percentage of improvement at Week 4: BOO", "setting": "[2]; [7]", "value": "32.2 ± 63.5", "unit": "%"}, {"measurement": "Percentage of improvement at Week 4: DBP", "setting": "[2]; [7]", "value": "2.3 ± 10.1% and 2.31 ± 10.12%"}, {"measurement": "Percentage of improvement at Week 4: IPSS", "setting": "[2]; [7]", "value": "28.1 ± 40.5 % and 28.15 ± 40.5%"}, {"measurement": "Percentage of improvement at Week 4: OAB", "setting": "[2]; [7]", "value": "7.7 ± 54.8", "unit": "%"}, {"measurement": "Percentage of improvement at Week 4: Qave", "setting": "[2]; [7]", "value": "13.8 ± 25.9 % and 13.77 ± 25.86%"}, {"measurement": "Percentage of improvement at Week 4: Qmax", "setting": "[2]; [7]", "value": "12.8 ± 30.5 % and 12.8 ± 30.47%"}, {"measurement": "Percentage of improvement at Week 4: SBP", "setting": "[2]; [7]", "value": "3.3 ± 11.9 % and 3.28 ± 11.92%"}]}]}
